# In US20070066996A1, “Modafinil-based neurorehabilitation of impaired neurological function associated with brian injury” (priority 2003, published 2007):
# Entries after “also recorded” stand apart in the source; their conditions may differ. Marks after values point to notes of the source that are not given here.
# Assays:
# [1] = system: individuals who have sustained a brain injury; settings: individuals with brain injury; L-dopa at high doses; co-filed international application; cited from earlier work
# [2] = system: chronic post-TBI patients with motor deficits; experiment: Box and Block Test of manual dexterity, open-label modafinil study; assay type: in vivo, human
# Experimental: (§1) Two chronic post-TBI patients with motor deficits were treated for two consecutive weeks with modafinil (a single 200 mg/day dose, orally). Additionally, three hours after administration of the drug, these patients received one hour of occupational therapy in the morning and one hour of motor training at home in the afternoon. Primary outcomes were the pinch strength measured with a mechanic dynamometer, the number of blocks that the patient can pass in one minute in a box and block test, and the time required to complete a grooved pegboard test as described below.
# The “Box and Block Test” is a standardized test of manual dexterity, which provides a baseline for upper extremity manual dexterity and gross motor coordination. The test is quick and simple to administer and uses […] (1″) colored wooden blocks.
# (§2) Patients were assessed at baseline, treated for two weeks, assessed at the end of the treatment, and assessed again 90 days after commencement of treatment.
# (§3) Patients were chronic post-traumatic brain injured individuals that were treated for two consecutive weeks with a 200 mg/day, single dose, of modafinil from Monday through Friday. Additionally, the patients received one hour of occupational therapy three hours after the oral intake of the drug and one hour of motor training at home. Primary outcomes were the pinch strength measured with a mechanic dynamometer, the number of blocks that the patient could pass in one minute in a box and block test, and the time required to complete a grooved pegboard at baseline. Primary outcomes were assessed at two weeks and 90 days from commencement of treatment.
# [3] = system: dopamine transporter knock-out mice; settings: Wisor et al. 2001; cited from earlier work
# [4] = system: chronic post-TBI patients with motor deficits; experiment: Pinch strength (mechanic dynamometer), open-label modafinil study; assay type: in vivo, human
# Experimental: as §1
# The Pinch Force Dynamometer is a hand-held device capable of measuring instantaneous strength of the thumb and opposing finger or groupings of fingers as a function of time. The principle components are a pinch force transducer, instrumentation amplifier, and associated cables. Dynamic voltage representing instantaneous finger(s) pinch strength as a function of time is taken from the output of the instrumentation amplifier and sent to a laptop computer or to a data acquisition system for data manipulation, display, correlation with other data sources, and/or storage.
# as §2, §3
# [5] = system: chronic post-TBI patients with motor deficits; experiment: Open-label study: overall functional motor performance and reported adverse effects; assay type: in vivo, human; settings: two patients
# Experimental: A clinical study was performed to evaluate the effect of modafinil on the functional outcome of the paretic arm of patients recovering from a brain injury.
# as §1, §2, §3
# extracellular dopamine = settings: Wisor et al., J. Neuroscience 2001; cited from earlier work
structure (smiles),measurement,setting,value
N[C@@H](Cc1ccc(O)c(O)c1)C(=O)O [L-dopa],"treating impaired neurological function, including emergence from coma and other altered consciousness states",[1],particularly effective
CN1CCc2cccc3c2[C@H]1Cc1ccc(O)c(O)c1-3 [apomorphine],"treating impaired neurological function, including emergence from coma and other altered consciousness states",[1],particularly effective
"NC(=O)C[S+]([O-])C(c1ccccc1)c1ccccc1 (stereo not drawn) [modafinil, 2-[(diphenylmethyl)sulfinyl]acetamide]",Box and Block,"[2]; Patient 1, affected hand, 14 days, baseline 34",46 # blocks passed in 1 min
same,Box and Block,"[2]; Patient 1, affected hand, 90 days, baseline 34",46 # blocks passed in 1 min
same,Box and Block,"[2]; Patient 1, intact hand, 14 days, baseline 54",59 # blocks passed in 1 min
same,Box and Block,"[2]; Patient 1, intact hand, 90 days, baseline 54",55 # blocks passed in 1 min
same,Box and Block,"[2]; Patient 2, affected hand, 14 days, baseline 30",40 # blocks passed in 1 min
same,Box and Block,"[2]; Patient 2, affected hand, 90 days, baseline 30",40 # blocks passed in 1 min
same,Box and Block,"[2]; Patient 2, intact hand, 14 days, baseline 54 (table) / 62",65 # blocks passed in 1 min
same,Box and Block,"[2]; Patient 2, intact hand, 90 days, baseline 54 (table) / 62",76 # blocks passed in 1 min
same,response to the action of modafinil,[3],unresponsive
same,Pinch Strength,"[4]; Patient 1, affected hand, 14 days, modafinil 200 mg/day orally for two weeks plus therapy, baseline 14.3",16.8 Pounds
same,Pinch Strength,"[4]; Patient 1, affected hand, 90 days from commencement, baseline 14.3",17.6 Pounds
same,Pinch Strength,"[4]; Patient 1, intact hand, 14 days, baseline 13.5",14.6 Pounds
same,Pinch Strength,"[4]; Patient 1, intact hand, 90 days, baseline 13.5",15 Pounds
same,Pinch Strength,"[4]; Patient 2, affected hand, 14 days, baseline 17",21.3 Pounds
same,Pinch Strength,"[4]; Patient 2, affected hand, 90 days, baseline 17",19.3 Pounds
same,Pinch Strength,"[4]; Patient 2, intact hand, 14 days, baseline 23",24 Pounds
same,Pinch Strength,"[4]; Patient 2, intact hand, 90 days, baseline 23",23.6 Pounds
same,persistence of the improvements,[5]; 90 days after commencement of treatment,sustained at 90 days
same,adverse effect reported with the medication,"[5]; modafinil 200 mg/day orally, two weeks",Neither of the patients reported any adverse effect; also recorded: did not report any adverse effect
same,functional motor performance in the intact hand,[5]; two-week course of modafinil,slight improvement
same,functional motor performance in the paretic hands,[5]; two-week course of modafinil 200 mg/day orally,improved functional motor performance
same,extracellular dopamine,extracellular dopamine,increased extracellular dopamine
